Entries after “also recorded” stand apart in the source; their conditions may differ.
What was measured:
[1] = system: RAGE; assay: Western blot of RAGE in isolated brain microvessels; assay type: in vivo, C57BL/6 wild-type mice; details: treated mice vs control
[2] = system: MRP1; assay: Western blot of MRP1 in brain homogenate; assay type: in vivo, C57BL/6 wild-type mice; details: treated mice vs control
[3] = system: LRP1; assay: Immunofluorescence staining of LRP1 in isolated brain microvessels; set-up: species or system C57BL/6 wild-type mice; details: mouse, in vivo
[4] = system: LRP1; assay: RT-PCR of LRP1 mRNA in bEnd3 cells; assay type: cell-based, mouse; details: 50 µM, 72 h, vs control
[5] = Drug concentration in plasma and brain homogenate; assay type: in vivo, C57BL/6 wild-type male mice; details: for concentration at 3 h: brain homogenate
[6] = cited from earlier work
[7] = system: LRP1; assay: Western blot of LRP1 protein in bEnd3 cells after drug treatment; details: 50 µM, 72 h, vs control (DMSO)
[8] = system: P-gp; assay: Immunofluorescence staining of P-gp in isolated brain microvessels; set-up: species or system C57BL/6 wild-type mice; details: mouse, in vivo
[9] = Body weight during in vivo treatment; set-up: species or system C57BL/6 wild-type male mice; details: caffeine 40 mg/kg ip once daily, treatment limited to 2 weeks
[10] = system: P-gp; details: bEnd3 cells, 50 µM, 72 h, vs control (DMSO)
[11] = after administration of 6.4 mg/kg dose; cited from earlier work
[12] = system: MDR1; details: bEnd3 cells, 50 µM, 72 h, vs control
[13] = system: cognitive decline; details: mild to moderate AD patients, 3-month course of 300 mg/day; cited from earlier work
[14] = target: P-gp (Mus musculus, UniProt P21447); assay: BEI% of 125I-Aβ40 with P-gp inhibition by intracerebral valspodar; assay type: in vivo, C57BL/6 mice; details: for BEI% of 125I-Aβ40 after valspodar pretreatment: valspodar 24 ng/0.5 µl
[15] = target: LRP1 (Mus musculus, UniProt Q91ZX7); assay: BEI% of 125I-Aβ40 with LRP1 inhibition by intracerebral RAP; assay type: in vivo, C57BL/6 mice; details: for BEI% of 125I-Aβ40 after RAP pretreatment: RAP 19.5 ng/0.5 µl

P-gp (Mus musculus, UniProt P21447), sequence (P21447 whole entry): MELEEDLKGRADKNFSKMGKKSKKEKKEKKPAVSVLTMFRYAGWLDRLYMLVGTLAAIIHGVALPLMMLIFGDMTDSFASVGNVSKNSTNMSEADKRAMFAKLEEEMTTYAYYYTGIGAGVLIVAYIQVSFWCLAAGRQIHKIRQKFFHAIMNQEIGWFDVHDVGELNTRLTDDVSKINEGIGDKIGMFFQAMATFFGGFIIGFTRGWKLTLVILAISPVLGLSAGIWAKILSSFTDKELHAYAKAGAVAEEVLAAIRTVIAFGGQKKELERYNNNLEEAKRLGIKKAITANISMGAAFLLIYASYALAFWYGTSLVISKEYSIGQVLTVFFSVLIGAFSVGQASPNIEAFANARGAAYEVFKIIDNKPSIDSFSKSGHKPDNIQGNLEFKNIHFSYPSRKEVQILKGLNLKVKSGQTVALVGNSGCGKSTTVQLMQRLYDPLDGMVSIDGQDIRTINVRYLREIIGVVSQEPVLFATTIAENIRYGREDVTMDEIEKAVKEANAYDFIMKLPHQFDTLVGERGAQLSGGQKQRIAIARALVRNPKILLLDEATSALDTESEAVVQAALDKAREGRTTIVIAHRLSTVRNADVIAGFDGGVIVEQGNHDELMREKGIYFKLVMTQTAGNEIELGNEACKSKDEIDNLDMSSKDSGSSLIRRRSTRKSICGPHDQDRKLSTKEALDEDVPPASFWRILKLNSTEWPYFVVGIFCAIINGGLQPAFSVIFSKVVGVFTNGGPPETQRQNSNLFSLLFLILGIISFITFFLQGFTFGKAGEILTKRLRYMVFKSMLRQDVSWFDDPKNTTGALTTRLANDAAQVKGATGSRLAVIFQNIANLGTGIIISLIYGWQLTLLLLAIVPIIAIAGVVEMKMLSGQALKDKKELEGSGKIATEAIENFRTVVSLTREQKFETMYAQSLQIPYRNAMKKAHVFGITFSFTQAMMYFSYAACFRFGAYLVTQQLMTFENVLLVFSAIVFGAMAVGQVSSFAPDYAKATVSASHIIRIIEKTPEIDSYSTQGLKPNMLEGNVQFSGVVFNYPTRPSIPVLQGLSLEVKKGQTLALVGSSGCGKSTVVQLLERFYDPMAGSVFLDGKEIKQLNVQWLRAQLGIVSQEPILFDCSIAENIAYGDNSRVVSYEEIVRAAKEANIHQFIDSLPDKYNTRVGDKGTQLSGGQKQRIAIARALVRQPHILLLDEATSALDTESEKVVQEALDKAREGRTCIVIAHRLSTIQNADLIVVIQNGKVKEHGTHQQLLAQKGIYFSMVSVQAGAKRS

Compound: Cn1c(=O)c2c(ncn2C)n(C)c1=O [Caffeine]
- effect on microvessels' RAGE expression (western blot) [1]: did not alter; also recorded: Insignificant differences
- effect on brain homogenate's MRP1 expression (western blot) [2]: did not alter; also recorded: Insignificant differences
- increase in LRP1 expression in brain microvessels (immunofluorescence) [3]: 1.2 fold
- increase in mRNA level of LRP1 (RT-PCR) [4]: did not show any effect
- Drug concentration Plasma ([5]; 3 h after last ip dose (rifampicin 20 mg/kg, caffeine 40 mg/kg daily), n = 12): 20000 ± 5400 ng/mL
- Kp at 3 h ([5]; male, C57BL/6, mouse, brain homogenate / plasma, ip): 0.5
- concentration at 3 h ([5]; male, C57BL/6, mouse, ip): 11800 ± 3600 ng/mL
- plasma protein binding [6]: 10–37%
- increase in LRP1 level (densitometric analysis of western blot) [7]: but not caffeine
- increase in P-gp expression in brain microvessels (immunofluorescence) [8]: 2.3 fold
- body weight observation during treatment [9]: weight loss

Compound: CO[C@H]1/C=C/O[C@@]2(C)Oc3c(C)c(O)c4c(O)c(c(/C=N/N5CCN(C)CC5)c(O)c4c3C2=O)NC(=O)/C(C)=C\C=C\[C@H](C)[C@H](O)[C@@H](C)[C@@H](O)[C@@H](C)[C@H](OC(C)=O)[C@@H]1C [Rifampicin]
- increase in P-gp level (densitometric analysis of western blot) [10]: 1.45 fold
- increase in mRNA level of LRP1 (RT-PCR) [4]: 1.4 fold
- concentration at 3 h ([5]; male, C57BL/6, mouse, ip): 150 ± 80 ng/mL
- free (unbound) plasma level in humans [11]: 1.08 µg/mL
- increase in mRNA of MDR1 (RT-PCR) [12]: 1.5 fold
- increase in LRP1 level (densitometric analysis of western blot) [7]: 1.2 fold
- effect on rate of cognitive decline [13]: attenuated the rate of cognitive decline

Compound: C/C=C/C[C@@H](C)C(=O)[C@H]1C(=O)N[C@@H](C(C)C)C(=O)N(C)CC(=O)N(C)[C@@H](CC(C)C)C(=O)N[C@@H](C(C)C)C(=O)N(C)[C@@H](CC(C)C)C(=O)N[C@@H](C)C(=O)N[C@H](C)C(=O)N(C)[C@@H](CC(C)C)C(=O)N(C)[C@@H](CC(C)C)C(=O)N(C)[C@@H](C(C)C)C(=O)N1C [Valspodar]
- reduction in BEI% values by valspodar ([14]; caffeine-treated mice): ~32%
- BEI% of 125I-Aβ40 after valspodar pretreatment ([14]; caffeine-treated mice, without valspodar 80.4±[…]): 48.1 ±2.3%
- reduction in BEI% values by valspodar ([14]; rifampicin-treated mice): ~25%
- BEI% of 125I-Aβ40 after valspodar pretreatment ([14]; rifampicin-treated mice, without valspodar 82.4±[…]): 57.5± 1.1%

Compound: RAP: human receptor associated protein, a specific LRP1 inhibitor
- BEI% of 125I-Aβ40 after RAP pretreatment ([15]; caffeine-treated mice, without RAP 80.4 ±[…]): 76.9 ±2.5%
- reduction in BEI% values by RAP ([15]; control mice): about 33%
- reduction in BEI% values by RAP ([15]; rifampicin-treated mice): ~13%
- BEI% of 125I-Aβ40 after RAP pretreatment ([15]; rifampicin-treated mice, without RAP 82.4±[…]): 69.7 ±3.3%
